In ChEMBL document CHEMBL3045674, “Synthesis of N-[3-(acetylthio)alkanoyl] and N-[3-mercaptoalkanoyl]-4-(s)-(phenylmethyl) pyroglutamic acids and prolines as potent ACE inhibitors” (2009):
Activity calls are given as the source filed them. The rule behind the calls is not given here.

Tests used:
Rattus norvegicus [1] = assay: Antihypertensive activity in Rattus norvegicus Sprague-Dawley (rat) assessed as inhibition of angiotensin-1-induced increase in blood pressure at 10 ug/kg, iv administered 5 min before angiotensin-1 challenge; assay type: functional
Rattus norvegicus [2] = assay: Antihypertensive activity in Rattus norvegicus Sprague-Dawley (rat) assessed as inhibition of angiotensin-1-induced increase in blood pressure at 30 ug/kg, iv administered 5 min before angiotensin-1 challenge; assay type: functional

Q: Which inhibition in vivo at 0.01 mg/kg (Rattus norvegicus [1]) does the source give for `C[C@H](CS)C(=O)N1CCC[C@H]1C(=O)O` [CAPTOPRIL] here?
A: 60%

Q: How did the inhibition (Rattus norvegicus [1]) turn out when `CC(=O)SC[C@@H](C)C(=O)N1C(=O)[C@@H](Cc2ccccc2)C[C@H]1C(=O)O` was run?
A: inactive

Q: What about the inhibition in vivo at 0.03 mg/kg (Rattus norvegicus [2]) of the same compound?
A: 60%

Q: For `CC(=O)SC[C@@H](C)C(=O)N1C[C@@H](Cc2ccccc2)C[C@H]1C(=O)O`, which inhibition in vivo at 0.01 mg/kg (Rattus norvegicus [1]) is on record?
A: 22%

Q: With `CC(=O)SCCC(=O)N1C(=O)[C@@H](Cc2ccccc2)C[C@H]1C(=O)O` as the compound, how does the inhibition in vivo at 0.01 mg/kg (Rattus norvegicus [1]) read?
A: 13%

Q: And the inhibition in vivo at 0.03 mg/kg (Rattus norvegicus [2])?
A: 20%
